This is an account of results in patent US6034108A, “Method for treating mental retardation” (Eli Lilly and Company, priority 1998, dated 2000).

One assay deals with m4 receptors. In words: cAMP formation in CHO m4 cells treated with pertussis toxin. In kind it is cell-based. The source says: Muscarinic agonists stimulate the formation of cAMP up to 10 fold in CHO m4 cells treated with pertussisi toxin and the pharmacology is consistent with the mediation by m4 receptors. Eckols K. Soc. Neurosci Abstr., 21:2040 (1995).
The target in assay [1] is T1, m2 receptors in brain stem (Rattus norvegicus, UniProt P10980).
T1 sequence (P10980 1-466): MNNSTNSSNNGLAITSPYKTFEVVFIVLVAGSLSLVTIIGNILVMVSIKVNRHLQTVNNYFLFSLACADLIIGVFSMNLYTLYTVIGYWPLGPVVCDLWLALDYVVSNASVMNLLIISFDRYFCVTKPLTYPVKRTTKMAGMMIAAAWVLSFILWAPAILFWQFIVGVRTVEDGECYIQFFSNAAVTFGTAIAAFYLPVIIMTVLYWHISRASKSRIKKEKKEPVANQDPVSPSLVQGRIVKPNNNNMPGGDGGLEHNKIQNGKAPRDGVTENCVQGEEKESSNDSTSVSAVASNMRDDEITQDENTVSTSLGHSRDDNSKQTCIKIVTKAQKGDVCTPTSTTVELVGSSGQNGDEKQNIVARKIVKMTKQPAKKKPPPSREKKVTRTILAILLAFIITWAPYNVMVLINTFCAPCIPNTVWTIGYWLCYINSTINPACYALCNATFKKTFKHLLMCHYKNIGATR
In words: 3H-guinuclidinyl benzilate binding to m2 receptors in brain stem.

SMILES strings stand for the structures.

For the compound `CCCCCCOc1nsnc1C1=CCCN(C)C1` [Xanomeline, 3-(4-hexyloxy-1,2,5-thiadiazol-3-yl)-1,2,5,6-tetrahydro-1-methylpyridine], the “stimulation of the formation of cAMP” value with m4 receptors is “efficaciously and potently stimulated the formation of cAMP”. Affinity in assay [1] was put at a Ki of 24 nM.
